Data on 78 compounds can be found in PubChem BioAssay AID504861 (Broad Institute, 2011).

Each structure is given as a SMILES string. The source made the active and inactive calls.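 How the source made its calls: active means compounds lowering cell viability signal with fitted half-maximal concentration at most ten times their highest tested concentration; inconclusive means flat fit with 30 to 70% signal loss, or poor fit; inactive means the rest.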 Where only a bound is given, the exact number is not on record here.

The experiment relates to HEK293T viability, CellTiter-Glo ATP luminescence, 48 h. In words: HEK293T cell viability reduction, dose response, cytotoxicity control for LMP1 NF-kB inhibitor project, CellTiter-Glo luminescence, cherry-picks (AID 504861). In general terms: ATP-based viability assays read luminescence as a measure of living cells.
Take `c1ccc(CCNc2nc(-c3ccccn3)nc3ccccc23)cc1`: the AC50 was 1.13 µM.
Take `CCOc1ccc(OCc2cccc(C(=O)N/N=C/c3cccnc3)c2)cc1`: the AC50 was > 26 µM (inactive).
For the compound `CCOc1ccc(C(=O)Nc2cc(C)ccn2)cc1`, the AC50 is 13.8 µM.
In the case of `COc1ccccc1NC(=O)c1c(Nc2ccccc2C)sc(C(=O)Nc2cccc(Cl)c2)c1N`, the AC50 is 4.52 µM.
`NC(=S)NN=Cc1nccc2c(C(F)(F)F)cccc12`: the AC50 was 5.67 µM.
Take `Cc1ccc(C(=O)/C=C/C(=O)c2ccc(C)cc2)cc1`: the concentration at half-maximal activity (AC50) was 7.08 µM.
Regarding `COc1ccc(C(=O)C(CN2CCOCC2)c2ccccc2)cc1F` (stereo not drawn), the AC50 was 8.32 µM.
On to `CC(C)C(=O)NC(c1cccc([N+](=O)[O-])c1)c1ccc2cccnc2c1O` (stereo not drawn), for which the AC50 is 4.33 µM.
Regarding `COc1cccc(/C=N/Nc2nccnc2Cl)c1O`, the AC50 was 3.79 µM.
Turning to `C#CCN(C[C@@H]1[C@@H](OC(=O)NCc2ccccc2F)[C@@H](OC(=O)NCc2ccccc2F)Cn2c(=O)ccc(=O)n21)S(=O)(=O)c1ccc(C)cc1`, the AC50 is 7.27 µM.
Regarding `C#Cc1cc(N2CCN(C(=O)c3ccoc3)CC2)n2nc(-c3cccc(Cl)c3)cc2n1`, the concentration at half-maximal activity (AC50) was 5.11 µM.
In the case of `O=C(O)c1cc(/C=C/c2ccc(N3CCOCC3)cc2)nc2ccccc12` it was > 26 µM (inactive).
For `CCN1CCN(Cc2ccc(NC(=O)c3ccc(C)c(NC(=O)c4cc(-c5ccc(Br)cc5)n[nH]4)c3)cc2C(F)(F)F)CC1`, the AC50 is 15.6 µM.
In the case of `Cc1csc(N=Nc2ccc(N(C)C)cc2)[n+]1[O-]` it was 5.71 µM.
As to `O=C(CCc1ccccc1)NC(c1cccs1)c1cc(Cl)c2cccnc2c1O` (stereo not drawn), the concentration at half-maximal activity (AC50) is 9.28 µM.
As for `C/C(=N\NC(=O)c1cccc(Br)c1)c1ccccn1`, the AC50 was 3.59 µM.
The same measure for `O=C(/C=C/c1ccco1)Oc1cc(Br)cc(/C=N/NC(=O)c2ccccc2O)c1`: 3.47 µM; for `Oc1ccc2ccccc2c1/C=N/Nc1nnc(-c2ncc[nH]2)c2ccccc12`: 2.32 µM; for `Fc1ccc2[nH]c3c(N4CCSCC4)ncnc3c2c1`: 9.97 µM.
The same measure for `O=C(NC1CCCCCCC1)c1cc(COc2ccc3ncccc3c2)on1`: 1.3 µM; for `Cc1[nH]n(-c2ccccc2)c(=O)c1/C=N/Nc1nncc(-c2ccccc2)n1`: 2.64 µM; for `C=CCn1c(O)c(N=NC(=S)Nc2ccccc2F)c2cc(S(=O)(=O)N3CCOCC3)ccc21`: > 26 µM (inactive).
Take `Nc1nc2ccccc2n1C(=O)c1ccccc1`: the AC50 was > 26 µM (inactive).
The same measure for `c1ccc(C2=NNC(=NC3CC3)SC2)cc1`: 12.1 µM; for `CCN(CC)CCC(=O)N1C/C(=C/c2ccccc2)C(=O)/C(=C\c2ccccc2)C1`: 3.88 µM.
Turning to `COc1ccccc1N(C(C)=O)C1=C(Cl)C(=O)c2ccccc2C1=O`, the concentration at half-maximal activity (AC50) was 11.7 µM.
As for `CCC(=O)NC(c1ccc(C)cc1)c1ccc2cccnc2c1O` (stereo not drawn), the AC50 is 4.33 µM.
For `CC(=NNc1nc2ccccc2o1)c1cc2ccccc2cn1`, the AC50 was 0.252 µM.
On to `CC(=O)NC(c1cccc([N+](=O)[O-])c1)c1ccc2cccnc2c1O` (stereo not drawn), for which the AC50 is 3.66 µM.
With `COc1cc([C@@H]2c3cc4c(cc3[C@@H](O[C@@H]3O[C@@H]5CO[C@@H](C)O[C@H]5[C@H](O)[C@H]3O)[C@H]3COC(=O)[C@H]23)OCO4)cc(OC)c1O`, the AC50 was 26.5 µM.
`c1ccc(-c2cccc(-c3ccccn3)n2)nc1`: the AC50 was 1.77 µM.
For `CCOc1ccc(Br)cc1/C(C)=N\NC1=NCCN1`, the half-maximal activity concentration (AC50) is 3.69 µM.
As to `COc1cccc(/C=N/NC(=O)c2[nH]nc3c2CCc2ccccc2-3)c1O`, the concentration at half-maximal activity (AC50) is 3.21 µM.
In the case of `CCNC(=S)NNC(=O)c1cc(-c2ccc(OCC)cc2)nc2ccccc12`, the concentration at half-maximal activity (AC50) was 23 µM.
As for `O=C(Nc1nc2ccc(F)cc2s1)C1=COCCO1`, the AC50 is 18.7 µM.
In the case of `CCN1CCN(Cc2ccc(NC(=O)c3ccc(C)c(NC(=O)c4nccnc4N)c3)cc2C(F)(F)F)CC1` it was 23.6 µM; in that of `Cc1cc(Sc2nnc(N)s2)c2ccccc2n1`, 3.34 µM; in that of `COc1ccc(O)c(/C=N/NC(=O)c2ccc(OCc3cccc(Br)c3)cc2)c1`, 4.45 µM.
Turning to `c1ccc(CCCN2CCN(CCOC(c3ccccc3)c3ccccc3)CC2)cc1`, the AC50 was 16.5 µM.
On to `COc1cccc(/C=N/Nc2ncnc(Cl)c2N)c1O`, for which the concentration at half-maximal activity (AC50) was 3.23 µM.
Turning to `CCCCC(=O)NC(c1ccc(N(CC)CC)cc1)c1ccc2cccnc2c1O` (stereo not drawn), the AC50 is 1.54 µM.
Turning to `CCOc1ccc(OCC(=O)Nc2nccs2)cc1`, the AC50 is 11.3 µM.
With `CC(=NNC(=S)Nc1ccccc1)c1ccccn1`, the AC50 was 1.56 µM.
As for `c1ccc(-c2nc(-c3ccccn3)no2)cc1`, the AC50 was 7.87 µM.
Turning to `Cc1nc(N)nc(N)c1/C=C/C(C)(C)c1ccc(Cl)cc1`, the AC50 was less than 0.011 µM.
In the case of `CC(=NNC(=S)N1CCCCC1)c1cccc(C)n1` it was > 26 µM (inactive).
Take `COc1ccc(Cc2nnc(N/N=C/c3ccc(O)cc3)[nH]c2=O)cc1OC`: the concentration at half-maximal activity (AC50) is 3.56 µM.
Take `COc1ccccc1[C@]1(C)ON(c2ccccc2C(F)(F)F)C1=O`: the AC50 was 26.4 µM.
The same measure for `CCCCCN=Cc1c(C)[nH]n(-c2nc3ccccc3s2)c1=O`: 1.33 µM; for `COc1cc2c(cc1OC)C(c1ccc(-c3ccccc3Cl)o1)=NCC2`: 21 µM; for `Cc1ccc2[nH]c3c(N4CCN(Cc5ccccc5)CC4)ncnc3c2c1`: 12.2 µM.
For `NC(=S)NN=Cc1nccc2c(C(F)(F)C(F)(F)C(F)(F)F)cccc12`, the AC50 is 1.52 µM.
The same measure for `CN(Cc1cnc2nc(N)nc(N)c2n1)c1ccc(C(=O)N[C@@H](CCC(=O)O)C(=O)O)cc1`: 0.016 µM; for `CCC(=O)NC(c1cc(Cl)c2cccnc2c1O)C(C)C` (stereo not drawn): 9.32 µM; for `O=C1C(=C(c2ccccc2)N2CCOCC2)Cc2ccccc21`: 1.38 µM.
With `CCN1CCN(Cc2ccc(NC(=O)c3ccc(C)c(NC(=O)c4cccc5[nH]ccc45)c3)cc2C(F)(F)F)CC1`, the concentration at half-maximal activity (AC50) is 22.3 µM.
The same measure for `CC(=NNC(=S)N1CCN(c2ccccn2)CC1)c1nccs1`: 3.52 µM; for `CCCCC(=O)NC(c1cccc([N+](=O)[O-])c1)c1ccc2cccnc2c1O` (stereo not drawn): 3.93 µM.
For the compound `CCCC(=O)NC(c1ccccc1Cl)c1ccc2cccnc2c1O` (stereo not drawn), the half-maximal activity concentration (AC50) is 4.36 µM.
Regarding `CCN1CCN(Cc2ccc(NC(=O)c3ccc(C)c(/C=C/c4cnc(Nc5cc(N6CCNCC6)nc(C)n5)cn4)c3)cc2C(F)(F)F)CC1`, the AC50 was 14.3 µM.
The same measure for `CCOC(=O)c1c(C)[nH]c(C(=O)N/N=C\c2ccccc2O)c1C`: 4.09 µM.
For `Cc1ccsc1/C=C/c1ccc2ccccc2n1`, the AC50 is 25.6 µM.
On to `COc1cccc(N=Nc2ccc(O)c3ncccc23)c1`, for which the AC50 is 2.88 µM.
On to `COc1ccc(OCc2cccc(C(=O)NN)c2)cc1`, for which the AC50 was > 26 µM (inactive).
As to `COc1ccc(C(=O)Nn2c(SCC(=O)NC3CCCCC3)nc3ccccc3c2=O)cc1`, the AC50 was > 26 µM (inactive).
With `C#CCn1c(S(=O)(=O)Cc2ccc(F)cc2)nc(-c2ccccc2)c1-c1ccccc1`, the AC50 is > 26 µM (inactive).
In the case of `Cc1cccc(-n2ncc(Cl)c(Cl)c2=O)c1`, the AC50 was 5.2 µM.
The same measure for `CCC(=O)NC(c1ccc(Cl)cc1Cl)c1ccc2cccnc2c1O` (stereo not drawn): 8.21 µM.
Regarding `C=CCn1c(O)c(N=NC(=S)Nc2cccc(C)c2)c2ccccc21`, the AC50 is > 26 µM (inactive).
For `CCCCC(=O)NC(c1ccc(Cl)cc1Cl)c1ccc2cccnc2c1O` (stereo not drawn), the AC50 is 3.16 µM.
In the case of `C#CCN(C[C@@H]1[C@@H](OC(=O)NCC2CCCCC2)[C@@H](OC(=O)NCC2CCCCC2)Cn2c(=O)ccc(=O)n21)S(=O)(=O)c1ccc(C)cc1` it was 4.63 µM.
In the case of `Cc1ccc(C(=O)Nc2ccc3c(c2)OCCO3)c(Cl)c1` it was > 26 µM (inactive); in that of `CC(=O)NC(c1ccc(Cl)cc1Cl)c1ccc2cccnc2c1O` (stereo not drawn), 1.63 µM; in that of `C/C(=N/NC(=O)c1ccc(C(C)(C)C)cc1)c1ccccn1`, 3.38 µM.
In the case of `CC(=NNC(=S)Nc1ccc(C)cc1)c1ccccn1` it was 0.624 µM; in that of `NC(=S)N/N=C/c1ncc(C(F)(F)F)cc1Cl`, 17.9 µM; in that of `COc1ccc(-c2ccc(NC(=O)c3ccco3)cc2)nn1`, 7.75 µM.
In the case of `Oc1ccc2ccccc2c1N=Nc1ccccn1`, the AC50 is 3.42 µM.

For orientation: AC50 means the concentration at which the activity in the assay is half-maximal.
